According to patent publication US12209261B2, “Media for the expression of recombinant vitamin K-dependent proteins” (CSL Behring Lengnau AG, priority 2015, dated 2025):

How the values were obtained:
[1] = test system: recombinant human Factor VII fusion protein; test: Recombinant Factor VII chromogenic activity in culture supernatants (COASET Factor VII kit); format: cell-based; details: for effect on chromogenic activity of FVII: supernatant at days 7, 9 and 10; for impact on yield and/or activity of FVII: summary in description, supplement present in cell culture medium during FVII expression, FIGS. 1B-8C
Description: (§1) Chinese Hamster Ovary cell line that expresses recombinant human Factor VII fusion protein was created using the GS expression system (Lonza). These cells were maintained in commercially available CD-CHO AGT medium (Invitrogen) supplemented with 50 μg/L reduced menadione sodium bisulfite (rMSB) (Richman), 25 μM methionine sulfoximine (MSX) (Sigma) and 1 mg/L insulin (Novo Nordisk). Cells were grown in shake flasks maintained at 37° C. with 8% CO2 atmosphere and subcultured every 3 days to 3×10^5 cells/mL.
Cells from the exponential growth phase of the cultures (at the end of regular 3-day passages) were used for the experiments. The cells were centrifuged, appropriate amount of spent media removed and cell pellets were resuspended in remaining spent media to a cell concentration of 3×10^6 cells/mL. 50 μL of this cell suspension was used to inoculate each well of a polypropylene V-bottom square 96-deepwell plate (Corning) containing 450 μL of a cell culture media based on DMEM/F12 supplemented with different levels of reduced L-glutathione (Sigma). […] All cultures contained 213 μg/L rMSB to support appropriate cellular processing of Factor VII. All liquid handling steps were performed using a Tecan Freedom EVO® 200 robotic platform.
(§2) Culture plates were sealed with a breathable membrane (Corning) to maintain sterility and cultures were maintained at 37° C. with 8% CO2 atmosphere in a shaker incubator (Kuhner) operating at 350 rpm with an oribital diameter of 25 mm.
Recombinant Factor VII chromogenic activity in the cultures were determined from serially diluted supernatant samples obtained at days 7, 9 and 10 (counted from inoculation of the culture) using a commercially available chromogenic kit COASET Factor VII kit (Chromogenix). The assay was adapted for use with the SYSMEX® CS-5100 automated hemostasis analyzer (Siemens Healthcare) and performed according to manufacturers' instructions.
Cells from the exponential growth phase of the cultures (at the end of regular 3-day passages) were used for the experiments. The cells were centrifuged, appropriate amount of spent media removed and cell pellets were resuspended in remaining spent media to a cell concentration of 3×10^6 cells/mL. 50 μL of this cell suspension was used to inoculate each well of a polypropylene V-bottom square 96-deepwell plate (Corning) containing 450 μL of a cell culture media based on DMEM/F12 supplemented with different levels of alpha-ketoglutaric acid (Sigma), malic acid (Sigma), succinic acid (Sigma), oxaloacetic acid (Sigma), fumaric acid (Sigma), citric acid (Sigma) or sodium pyruvate (Sigma). […]
Recombinant Factor VII chromogenic activity in the cultures was determined as described for Example 1.

[2] = test system: CHO cells expressing FVII; test: Determination of cell growth and viability (viable cell density, flow cytometry with propidium iodide); format: cell-based, Chinese Hamster; details: for impact on viable cell density (VCD): summary in description, supplement present in cell culture medium, FIGS. 1A-8A
Description: as §1
Cells from the exponential growth phase of the cultures (at the end of regular 3-day passages) were used for the experiments. The cells were centrifuged, appropriate amount of spent media removed and cell pellets were resuspended in remaining spent media to a cell concentration of 3×10^6 cells/mL. 50 μL of this cell suspension was used to inoculate each well of a polypropylene V-bottom square 96-deepwell plate (Corning) containing 450 μL of a cell culture media based on DMEM/F12 supplemented with different levels of reduced L-glutathione (Sigma). The reduced L-glutathione concentration ranges tested were 0.01-15 mM with a corresponding reduced L-glutathione-free negative control. All cultures contained 213 μg/L rMSB to support appropriate cellular processing of Factor VII. All liquid handling steps were performed using a Tecan Freedom EVO® 200 robotic platform.
as §2
The cell density and viability in the culture were determined offline from a sample of culture obtained at day 5 and day 7 (counted from inoculation of the culture) using a MACSQuant® Analyzer 10 flow cytometer (Miltenyi Biotec), utilizing propidium iodide (Miltenyi Biotec) for viability staining. […]
The cell density and viability were determined as described for Example 1.

SMILES: CC(=O)C(=O)[O-].[Na+] [Sodium pyruvate, sodium pyruvate, reference compound]
- effect on chromogenic activity of FVII ([1]; Example 2, TCA intermediates 0.06-60 mM, sodium pyruvate 0.01-10 mM, FIGS. 2B-8C): no effect on the chromogenic activity of FVII
- impact on yield and/or activity of FVII [1]: no impact on yield and/or activity of FVII
- impact on viable cell density (VCD) [2]: only minor impact on the viable cell density

SMILES: N[C@@H](CCC(=O)N[C@@H](CS)C(=O)NCC(=O)O)C(=O)O [L-glutathione, (2S)-2-amino-5-[[(2R)-1-(carboxymethylamino)-1-oxo-3-sulfanylpropan-2-yl]amino]-5-oxopentanoic acid]
- effect on chromogenic activity of FVII ([1]; Example 1, reduced L-glutathione 0.01-15 mM, FIGS. 1B and 1C): increases chromogenic activity of FVII
- impact on yield and/or activity of FVII [1]: enhances yield and/or activity of FVII
- effect on viable cell density ([2]; Example 1, reduced L-glutathione 0.01-15 mM in DMEM/F12-based medium, day 5 and day 7, at most concentrations tested, FIG. 1A): no effect on the viable cell density
- impact on viable cell density (VCD) [2]: only minor impact on the viable cell density
